Assay results published in patent publication US20220372031A1, “NOVEL TRICYCLIC AROMATIC HETEROCYCLIC COMPOUND, PREPARATION METHOD THEREFOR, PHARMACEUTICAL COMPOSITION AND APPLICATION THEREOF” (SHANGHAI LONGWOOD BIOPHARMACEUTICALS CO., LTD., priority 2019, published 2022).

target: T1, PD-1/PD-L1 (Homo sapiens, UniProt Q9NZQ7); assay: PD-1/PD-L1 homogeneous time-resolved fluorescence (HTRF) binding assay; settings: PD-1/PD-L1 HTRF binding, ~3 nM PD1, 10 nM PD-L1, 25° C., PBS pH 7.4
T1 construct: Recombinant human PD-L1 protein (19-238) with a His-tagged at the C-terminus; purchased AcroBiosystems PD1-H5229 (PD-L1); PD1-H5257 (PD-1)
T1 sequence (Q9NZQ7 19-238): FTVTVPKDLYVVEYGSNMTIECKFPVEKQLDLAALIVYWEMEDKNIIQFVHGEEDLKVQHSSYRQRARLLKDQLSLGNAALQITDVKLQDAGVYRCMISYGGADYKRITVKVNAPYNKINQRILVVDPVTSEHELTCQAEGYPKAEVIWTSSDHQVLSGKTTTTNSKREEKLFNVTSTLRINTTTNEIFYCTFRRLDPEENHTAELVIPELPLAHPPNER
Protocol: Assays were performed in standard black 384-well polystyrene plates and a final volume was 20 μL. The inhibitor was first serially diluted with DMSO and added to the wells of the plate, followed by the addition of other reaction components. The final concentration of DMSO in the assay was 1%. Assays were performed at 25° C. in PBS buffer (pH 7.4) containing 0.05% Tween-20 and 0.1% BSA. Recombinant human PD-L1 protein (19-238) with a His-tagged at the C-terminus was purchased from AcroBiosystems (PD1-H5229). Recombinant human PD-1 protein (25-167) with an Fc tag at the C-terminus was also purchased from AcroBiosystems (PD1-H5257). The PD-L1 and PD-1 proteins were diluted in assay buffer and then […] of the solution was extracted and added to the wells of the plate. Plates were centrifuged and proteins and inhibitors were preincubated for 40 minutes. After incubation, 0.1 μl of HTRF detection buffer containing europium […] labeled anti-human IgG (PerkinElmer-AD0212), Fc-specific and anti-His SureLight®-Allophycocyanin (APC, PerkinElmer-AD0059H) conjugated antibodies was added. After centrifugation, the plates were incubated at 25° C. for 60 minutes. Data was read in a PHERAstar FS plate reader (665 nm/620 nm ratio). Final concentrations in the assay were ˜3 nM PD1, 10 nM PD-L1, 1 nM europium anti-human IgG, and 20 nM anti-His-allophycocyanin. Activity data were fitted using GraphPad Prism 5_0 software to derive IC50 values for inhibitors.

IC50 [nM] | SMILES
≤ 10 | Cc1c(Nc2nccc3cc(CN4CC[C@@H](O)C4)cnc23)cccc1-c1cccc(-c2nc3cc4c(c(C#N)c3o2)CCC4N2CC[C@@H](C(=O)O)C2)c1C (stereo partly shown) [Compound 004]
≤ 10 | N#Cc1c2c(cc3nc(-c4cccc(-c5cccc(Nc6nccc7cc(CN8CC[C@@H](O)C8)cnc67)c5Cl)c4Cl)oc13)C(N1CC[C@@H](C(=O)O)C1)CC2 (stereo partly shown) [Compound 005]
≤ 10 | Cc1c(Nc2nccc3cc(CN4CC[C@@H](O)C4)cnc23)cccc1-c1cccc(-c2nc3cc4c(c(C#N)c3o2)CC[C@@H]4N2CC[C@@H](C(=O)O)C2)c1C [Compound 006]
≤ 10 | Cc1c(Nc2nccc3cc(CN4CC[C@@H](O)C4)cnc23)cccc1-c1cccc(-c2nc3cc4c(c(C#N)c3o2)CC[C@H]4N2CC[C@@H](C(=O)O)C2)c1C [Compound 007]
≤ 10 | Cc1c(Nc2nccc3cc(CN4CC[C@@H](O)C4)cnc23)cccc1-c1cccc(-c2nc3cc4c(c(C#N)c3o2)CCC4N2CC[C@@H](C(N)=O)C2)c1C (stereo partly shown) [Compound 010]
≤ 10 | N#Cc1c2c(cc3nc(-c4cccc(-c5cccc(Nc6nccc7cc(CN8CC[C@@H](O)C8)cnc67)c5Cl)c4Cl)oc13)[C@@H](NCCC(=O)O)CC2 [Compound 011]
≤ 10 | N#Cc1c2c(cc3nc(-c4cccc(-c5cccc(Nc6nccc7cc(CN8CC[C@@H](O)C8)cnc67)c5Cl)c4Cl)oc13)[C@@H](NCC(=O)O)CC2 [Compound 012]
≤ 10 | CN(CC(=O)O)[C@H]1CCc2c1cc1nc(-c3cccc(-c4cccc(Nc5nccc6cc(CN7CC[C@@H](O)C7)cnc56)c4Cl)c3Cl)oc1c2C#N [Compound 013]
≤ 10 | Cc1c(Nc2nccc3cc(CN4CC[C@@H](O)C4)cnc23)cccc1-c1cccc(-c2cc3cc4c(c(C#N)c3o2)CCC4N2CC[C@@H](C(=O)O)C2)c1C (stereo partly shown) [Compound 018]
≤ 10 | N#Cc1c2c(cc3cc(-c4cccc(-c5cccc(Nc6nccc7cc(CN8CC[C@@H](O)C8)cnc67)c5Cl)c4Cl)oc13)C(N1CC[C@@H](C(=O)O)C1)CC2 (stereo partly shown) [Compound 021]
≤ 10 | Cc1c(Nc2nccc3cc(CN4CC[C@@H](O)C4)cnc23)cccc1-c1cccc(-c2nc3cc4c(c(C#N)c3o2)CCC4N2CC[C@@H](C(=O)O)C2)c1Cl (stereo partly shown) [Compound 026]
≤ 10 | Cc1c(-c2nc3cc4c(c(C#N)c3o2)CCC4N2CC[C@@H](C(=O)O)C2)cccc1-c1cccc(Nc2nccc3cc(CN4CC[C@@H](O)C4)cnc23)c1Cl (stereo partly shown) [Compound 027]
≤ 10 | N#Cc1c2c(cc3nc(-c4cccc(-c5cccc(Nc6nccc7cc(CN8CC[C@@H](O)C8)cnc67)c5Cl)c4Cl)oc13)[C@@H](N1CC[C@@H](C(=O)O)C1)CC2 [Compound 029]
≤ 10 | N#Cc1c2c(cc3nc(-c4cccc(-c5cccc(Nc6nccc7cc(CN8CC[C@@H](O)C8)cnc67)c5Cl)c4Cl)oc13)[C@H](N1CC[C@@H](C(=O)O)C1)CC2 [Compound 030]
≤ 10 | N#Cc1c2c(cc3nc(-c4cccc(-c5cccc(Nc6nccc7cc(CN8CC[C@@H](O)C8)cnc67)c5Cl)c4Cl)oc13)[C@H](NCCC(=O)O)CC2 [Compound 031]
≤ 10 | Cc1c(Nc2nccc3cc(CN4CC[C@@H](O)C4)cnc23)cccc1-c1cccc(-c2nc3cc4c(c(C#N)c3o2)CC[C@H]4N2CC[C@@H](C(=O)NS(=O)(=O)C3CC3)C2)c1C [Compound 032]
≤ 10 | Cc1c(Nc2nccc3cc(CN4CC[C@@H](O)C4)cnc23)cccc1-c1cccc(-c2nc3cc4c(c(C#N)c3o2)CC[C@H]4N2CC[C@@H](C(=O)O)C2)c1Cl [Compound 040]
≤ 10 | N#Cc1c2c(cc3nc(-c4cccc(-c5cccc(Nc6nccc7cc(CN8CC[C@@H](O)C8)cnc67)c5Cl)c4Cl)oc13)[C@@H](NCC(=O)NS(=O)(=O)C1CC1)CC2 [Compound 042]
10 to 100 | CCOC(=O)CN[C@H]1CCc2c1cc1nc(-c3cccc(-c4cccc(Nc5nccc6cc(CN7CC[C@@H](O)C7)cnc56)c4Cl)c3Cl)oc1c2C#N [Compound 043]
≤ 10 | Cc1c(-c2nc3cc4c(c(C#N)c3o2)CC[C@H]4N2CC[C@@H](C(=O)O)C2)cccc1-c1cccc(Nc2nc(C(F)F)nc3cc(CN4CC[C@@H](O)C4)cnc23)c1Cl [Compound 081]
≤ 10 | Cc1c(Nc2nc(C(F)F)nc3cc(CN4CC[C@@H](O)C4)cnc23)cccc1-c1cccc(-c2nc3cc4c(c(C#N)c3o2)CC[C@H]4N2CC[C@@H](C(=O)O)C2)c1Cl [Compound 082]
≤ 10 | N#Cc1c2c(cc3nc(-c4cccc(-c5cccc(Nc6nc(C(F)F)nc7cc(CN8CC[C@@H](O)C8)cnc67)c5Cl)c4Cl)oc13)[C@H](N1CC[C@@H](C(=O)O)C1)CC2 [Compound 083]

Continued, molecule first:

SMILES | IC50 [nM]
Cc1c(Nc2nccc3cc(CN4CC[C@@H](O)C4)cnc23)cccc1-c1cccc(-c2cc3cc4c(c([N+](=O)[O-])c3o2)CCCC4N2CC(C(=O)O)C2)c1C (stereo partly shown) [Compound 001] | ≤ 10
Cc1c(Nc2nccc3cc(CN4CC[C@@H](O)C4)cnc23)cccc1-c1cccc(-c2cc3cc4c(c(C#N)c3o2)CCCC4N2CC(C(=O)O)C2)c1C (stereo partly shown) [Compound 002] | ≤ 10
COc1nc(-c2cccc(-c3cccc(-c4cc5cc6c(c(C#N)c5o4)CCC6N4CC[C@@H](C(=O)O)C4)c3C)c2C)cnc1CN1CC[C@@H](O)C1 (stereo partly shown) [Compound 003] | ≤ 10
COc1nc(-c2cccc(-c3cccc(-c4nc5cc6c(c(C#N)c5o4)CCC6N4CC[C@@H](C(=O)O)C4)c3C)c2C)ccc1CN1CC[C@@H](O)C1 (stereo partly shown) [Compound 008] | ≤ 10
Cc1c(Nc2nccc3cc(CN4CC[C@@H](O)C4)cnc23)cccc1-c1cccc(-c2nc3cc4c(c(C#N)c3o2)CCC4N2CC[C@@H](C(=O)NS(=O)(=O)C3CC3)C2)c1C (stereo partly shown) [Compound 009] | ≤ 10
Cc1c(Nc2nc(N)nc3cc(CN4CC[C@@H](O)C4)cnc23)cccc1-c1cccc(-c2nc3cc4c(c(C#N)c3o2)CC[C@H]4N2CC[C@@H](C(=O)O)C2)c1C [Compound 015] | ≤ 10
Cc1c(Nc2nc(C(F)F)nc3cc(CN4CC[C@@H](O)C4)cnc23)cccc1-c1cccc(-c2nc3cc4c(c(C#N)c3o2)CC[C@H]4N2CC[C@@H](C(=O)O)C2)c1C [Compound 016] | ≤ 10
Cc1c(Nc2nccc3cc(CN4CC[C@@H](O)C4)cnc23)cccc1-c1cccc(-c2cc3cc4c(c(C#N)c3o2)CCCC4N2CC[C@@H](C(=O)O)C2)c1C (stereo partly shown) [Compound 017] | ≤ 10
Cc1c(Nc2nccc3cc(CN4CC[C@@H](O)C4)cnc23)cccc1-c1cccc(-c2cc3cc4c(c(C#N)c3o2)CCCC4N2CC[C@@H](O)C2)c1C (stereo partly shown) [Compound 019] | ≤ 10
Cc1c(Nc2nccc3cc(CN4CC[C@@H](O)C4)cnc23)cccc1-c1cccc(-c2cc3cc4c(c(C#N)c3o2)CCC4N2CC[C@@H](O)C2)c1C (stereo partly shown) [Compound 020] | ≤ 10
Cc1c(Nc2nccc3cc(CN4CC[C@@H](O)C4)cnc23)cccc1-c1cccc(-c2cc3cc4c(c(C#N)c3o2)CC[C@@H]4N)c1C [Compound 022] | ≤ 10
Cc1c(Nc2nccc3cc(CN4CC[C@@H](O)C4)cnc23)cccc1-c1cccc(-c2cc3cc4c(c(C#N)c3o2)CCCC4NCCO)c1C (stereo partly shown) [Compound 023] | ≤ 10
Cc1c(Nc2nccc3cc(CN4CC[C@@H](O)C4)cnc23)cccc1-c1cccc(-c2nc3cc4c(c(C#N)c3o2)CCC4NCCC(=O)O)c1C (stereo partly shown) [Compound 028] | ≤ 10
COc1nc(-c2cccc(-c3cccc(-c4nc5cc6c(c(C#N)c5o4)CC[C@H]6N4CC[C@@H](C(=O)NS(=O)(=O)C5CC5)C4)c3C)c2C)ccc1CN1CC[C@@H](O)C1 [Compound 034] | ≤ 10
COc1nc(-c2cccc(-c3cccc(-c4nc5cc6c(c(C#N)c5o4)CC[C@H]6N4CC[C@@H](C(=O)NS(=O)(=O)C5CC5)C4)c3Cl)c2Cl)ccc1CN1CC[C@@H](O)C1 [Compound 035] | ≤ 10
COc1nc(-c2cccc(-c3cccc(-c4nc5cc6c(c(C#N)c5o4)CC[C@H]6N4CC[C@@H](C(=O)NS(=O)(=O)C5CC5)C4)c3C)c2C)cnc1CN1CC[C@@H](O)C1 [Compound 036] | ≤ 10
COc1nc(-c2cccc(-c3cccc(-c4nc5cc6c(c(C#N)c5o4)CC[C@H]6N4CC[C@@H](C(=O)NS(=O)(=O)C5CC5)C4)c3Cl)c2Cl)cnc1CN1CC[C@@H](O)C1 [Compound 037] | ≤ 10
COc1nc(-c2cccc(-c3cccc(-c4nc5cc6c(c(C#N)c5o4)CC[C@@H]6NCCC(=O)O)c3Cl)c2Cl)cnc1CN1CC[C@@H](O)C1 [Compound 038] | ≤ 10
COc1nc(-c2cccc(-c3cccc(-c4nc5cc6c(c(C#N)c5o4)CC[C@H]6NCCC(=O)O)c3Cl)c2Cl)cnc1CN1CC[C@@H](O)C1 [Compound 039] | ≤ 10
COc1nc(-c2cccc(-c3cccc(-c4nc5cc6c(c(C#N)c5o4)CC[C@H]6N4CC[C@@H](C(=O)NS(=O)(=O)C5(C)CC5)C4)c3C)c2C)cnc1CN1CC[C@@H](O)C1 [Compound 084] | ≤ 10
COc1nc(-c2cccc(-c3cccc(-c4nc5cc6c(c(C#N)c5o4)CC[C@H]6N4CC[C@@H](C(=O)NS(=O)(=O)C5(C)CC5)C4)c3Cl)c2Cl)cnc1CN1CC[C@@H](O)C1 [Compound 086] | ≤ 10
